Test results as given in patent US20160194299A1 (priority 2013, published 2016).
≈ marks a conversion by molar mass, not a printed value. Like-named read-outs stand apart in the source and are kept apart here.

Key:
[1] = system: Mtb; experiment: microbe, parasite or virus in culture; format: cell-based, Mycobacterium tuberculosis; details: Mycobacterium tuberculosis, read-out: MIC (III)
[2] = in vitro; details: African green monkey
[3] = system: Mtb; experiment: microbe, parasite or virus in culture; format: cell-based, Mycobacterium tuberculosis; details: Mycobacterium tuberculosis, read-out: MIC (I)

| SMILES | MIC [1] [µg/mL] | CC50 [2] [µg/mL] | MIC [3] [µg/mL] |
| --- | --- | --- | --- |
| CCOC(=O)NC(=O)c1ccsc1NC(=O)c1c(C)nc2ccc(C)cn12 [Compound 336] | > 25 | 25 to 50 (≈ 64.7 to 129 µM) | > 3 |
| CCOC(=O)NC(=O)c1ccsc1NC(=O)/C=C/c1ccncc1 [Compound 356] | > 25 | 25 to 50 (≈ 72.4 to 145 µM) | > 3 |
| CCOC(=O)NC(=O)c1ccsc1NC(=O)c1nc2c(N(C)C)ccnc2s1 [Compound 268] | > 25 | > 50 | < 1 |
| CC(C)COC(=O)NC(=O)c1ccsc1NC(=O)c1cnc2ccnn2c1 [Compound 283] | > 25 | 25 to 50 (≈ 64.5 to 129 µM) | 1 to 3 (≈ 2.58 to 7.74 µM) |
| O=C(Nc1sccc1C(=O)OCCN1CCOCC1)c1nc2ccccc2s1 [Compound 291] | > 25 | > 50 | > 3 |
| CC(C)(C)C(=O)Nc1cc(C(=O)Nc2sccc2C(=O)NC(=O)OCCF)ccn1 [Compound 29] | > 25 | 25 to 50 (≈ 57.3 to 115 µM) | < 1 |
| O=C(NC(=O)c1ccsc1NC(=O)c1nc2cccnc2s1)OCc1ccccc1C(F)(F)F [Compound 288] | 5 to 25 (≈ 9.87 to 49.4 µM) | < 25 | > 3 |
| CCOC(=O)NC(=O)c1ccsc1NC(=O)c1cccc2ncccc12 [Compound 139] | > 25 | > 50 | > 3 |
| CC(C)OC(=O)NC(=O)c1ccsc1NC(=O)c1ccc2nccnc2c1 [Compound 399] | > 25 | < 25 | < 1 |
| CCOC(=O)NC(=O)c1ccsc1NC(=O)c1nc2cnccc2s1 [Compound 82] | < 5 | > 50 | < 1 |
| CCOC(=O)NC(=O)c1ccsc1NC(=O)c1cc2cccnc2s1 [Compound 332] | > 25 | > 50 | < 1 |
| CCOC(=O)NC(=O)c1ccsc1NC(=O)c1cnc2ccoc2c1 [Compound 353] | > 25 | 25 to 50 (≈ 69.6 to 139 µM) | 1 to 3 (≈ 2.78 to 8.35 µM) |
| O=C(NC(=O)c1ccsc1NC(=O)c1cnc2ccnn2c1)OCc1ccccc1C(F)(F)F [Compound 289] | > 25 | < 25 | > 3 |
| CCOC(=O)NC(=O)c1ccsc1NC(=O)c1nc(S(C)(=O)=O)ncc1Cl [Compound 126] | > 25 | < 25 | > 3 |
| CCOC(=O)NC(=O)c1ccsc1NC(=O)c1nc2ncccn2n1 [Compound 125] | 5 to 25 (≈ 13.9 to 69.4 µM) | > 50 | > 3 |
| CCOC(=O)NC(=O)c1ccsc1NC(=O)c1nc2ccc(NC(=O)CN)cc2s1 [Compound 393] | > 25 | < 25 | > 3 |
| CCOC(=O)NC(=O)c1ccsc1NC(=O)C1=Cc2cc(OC)ccc2OC1 [Compound 68] | < 5 | > 50 | < 1 |
| CCC(OC(=O)NC(=O)c1ccsc1NC(=O)c1nc2cnccc2s1)c1ccccc1 (stereo not drawn) [Compound 305] | > 25 | < 25 | 1 to 3 (≈ 2.14 to 6.43 µM) |
| O=C(NCC(F)(F)F)NC(=O)c1ccsc1NC(=O)c1nc2ccccc2s1 [Compound 349] | > 25 | 25 to 50 (≈ 58.4 to 117 µM) | > 3 |
| CN1CCCN(C(=O)c2ccsc2NC(=O)c2nc3ccccc3s2)CC1 [Compound 254] | > 25 | > 50 | > 3 |
| O=C(NC(=O)c1ccsc1NC(=O)c1nc2cnccc2s1)OCc1ccccc1C(F)(F)F [Compound 295] | 5 to 25 (≈ 9.87 to 49.4 µM) | < 25 | > 3 |
| O=C(NC(=O)c1ccsc1NC(=O)c1nc2ccccc2s1)OCCC(F)(F)F [Compound 319] | > 25 | < 25 | < 1 |
| C#CCOC(=O)NC(=O)c1ccsc1NC(=O)c1nc2cnccc2s1 [Compound 100] | > 25 | 25 to 50 (≈ 64.7 to 129 µM) | < 1 |
| CCOC(=O)NC(=O)c1ccsc1NC(=O)c1sc(C)nc1C(F)(F)F [Compound 137] | > 25 | > 50 | > 3 |
| COCCOC(=O)NC(=O)c1ccsc1NC(=O)c1nc2cnccc2s1 [Compound 103] | > 25 | > 50 | < 1 |

| SMILES | MIC [1] [µg/mL] | CC50 [2] [µg/mL] | MIC [3] [µg/mL] |
| --- | --- | --- | --- |
| CC(C)OC(=O)NC(=O)c1ccsc1NC(=O)c1ccn2nccc2c1 [Compound 317] | > 25 | < 25 | < 1 |
| CCOC(=O)NC(=O)c1cc(C(=O)OCC)sc1NC(=O)c1nc2cnccc2s1 [Compound 279] | > 25 | 25 to 50 (≈ 55.7 to 111 µM) | > 3 |
| CCOC(=O)NC(=O)c1ccsc1NC(=O)c1nc(C(F)(F)F)cs1 [Compound 144] | > 25 | > 50 | > 3 |
| CCOC(=O)NC(=O)c1ccsc1NC(=O)c1ccc2cnccc2c1 [Compound 145] | > 25 | > 50 | > 3 |
| CCOC(=O)N(C)C(=O)c1ccsc1NC(=O)c1nc2cnccc2s1 [Compound 376] | > 25 | < 25 | > 3 |
| CCOC(=O)NC(=O)c1ccsc1NC(=O)c1ccc2cnccc2n1 [Compound 113] | > 25 | > 50 | > 3 |
| CCOC(=O)NC(=O)c1ccsc1NC(=O)c1nc2ccccc2o1 [Compound 396] | > 25 | < 25 | < 1 |
| C#CCOC(=O)NC(=O)c1ccsc1NC(=O)c1nc2ccccc2s1 [Compound 303] | > 25 | < 25 | < 1 |
| CCOC(=O)NC(=O)c1ccsc1NC(=O)c1cn2c(C)cccc2n1 [Compound 290] | > 25 | > 50 | > 3 |
| CCOC(=O)NC(=O)c1ccsc1NC(=O)c1cnc2ccccc2n1 [Compound 87] | < 5 | > 50 | < 1 |
| CCOC(=O)NC(=O)c1ccsc1NC(=O)c1cn2c(n1)sc1ccccc12 [Compound 292] | > 25 | > 50 | > 3 |
| CCOC(=O)NC(=O)c1ccsc1NC(=O)c1cnn2ccccc12 [Compound 265] | > 25 | 25 to 50 (≈ 69.8 to 140 µM) | > 3 |
| O=C(NC(=O)c1ccsc1NC(=O)c1cnc2ccnn2c1)OCc1ccccc1 [Compound 300] | > 25 | 25 to 50 (≈ 59.3 to 119 µM) | > 3 |
| CCOC(=O)NC(=O)c1ccsc1NC(=O)c1nc2c(N(C)C)nccc2s1 [Compound 270] | > 25 | > 50 | < 1 |
| CC1CCN(C(=O)c2ccsc2NC(=O)c2nc3ccccc3s2)CC1 [Compound 260] | > 25 | 25 to 50 (≈ 64.8 to 130 µM) | > 3 |
| CCOC(=O)NC(=O)c1cc(F)sc1NC(=O)c1nc2ncccc2s1 [Compound 389] | > 25 | < 25 | 1 to 3 (≈ 2.54 to 7.61 µM) |
| CCOC(=O)NC(=O)c1ccsc1NC(=O)c1ccnnc1 [Compound 86] | 5 to 25 (≈ 15.6 to 78 µM) | > 50 | 1 to 3 (≈ 3.12 to 9.37 µM) |
| CC(C)OC(=O)NC(=O)c1ccsc1NC(=O)c1nc2ccccc2s1 [Compound 41] | > 25 | < 25 | < 1 |
| CC(C)OC(=O)NC(=O)c1cc(F)sc1NC(=O)c1cn2ccccc2n1 [Compound 339] | > 25 | 25 to 50 (≈ 64 to 128 µM) | < 1 |
| CC(C)OC(=O)NC(=O)c1ccsc1NC(=O)/C=C/c1nc2ccccc2s1 [Compound 366] | 5 to 25 (≈ 12 to 60.2 µM) | < 25 | < 1 |
| CCOC(=O)NC(=O)c1ccsc1NC(=O)c1ccc2ncoc2c1 [Compound 75] | > 25 | > 50 | > 3 |
| CC(C)OC(=O)NC(=O)c1ccsc1NC(=O)c1cnc2ccnn2c1 [Compound 298] | < 5 | < 25 | < 1 |
| O=C(NC(=O)c1cc(F)sc1NC(=O)c1nc2ccccc2s1)OCCN1CCOCC1 [Compound 388] | > 25 | < 25 | < 1 |
| CC(C)OC(=O)NC(=O)c1ccsc1NC(=O)c1cc2c(F)cccc2s1 [Compound 330] | 5 to 25 (≈ 12.3 to 61.5 µM) | < 25 | < 1 |
